Like-named read-outs stand apart in the source and are kept apart here.
How the values were obtained:
FimH [1] = target: T1, FimH (Escherichia coli, UniProt Q1R2J4);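 note: hemagglutination inhibition of guinea pig erythrocytes agglutinated by type 1 piliated uropathogenic E. coli via FimH mannose binding, quantified through serial dilutions of compound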
Experimental: (§2) In some embodiments, activity of the compound is measured using hemmagglutination titer of guinea pig red blood cells. Hemagglutination of guinea pig red blood cells by type1 piliated UPEC is dependent upon FimH mannose binding ability and serial dilutions allow a quantitative analysis.
(§3) Biological activity against FimH was evaluated using a guinea pig red blood cell-based hemagglutination (HA) assay (ref) in which the concentration of the mannoside on reducing agglutination by 50% was used as the primary endpoint (50% HA titer).
(§4) Hemagglutination of guinea pig red blood cells by type1 piliated UPEC is dependent upon FimH mannose binding ability. Serial dilutions allow a quantitative analysis using this assay.
(§5) Hemagglutination assays for mannose-sensitive agglutination of guinea pig red blood cells were performed as previously described.

FimH [2] = target: FimH (Escherichia coli, UniProt P08191); test: biochemical; assay type: binding, E. coli
Description: In order to more accurately determine the relative contributions of both binding affinity to FimH versus other compound properties to the potency seen in the cellular HA titer assay, a high-throughput fluorescence polarization (FP) (or anisotropy) competitive binding assay was developed using a fluorescent-labeled mannoside ligand shown in Scheme 4.
A fluorescent polarization assay was developed and miniaturized to monitor the direct binding of a synthesized fluorescently labeled butyl mannose derivative to the FimH receptor as well as competitive displacement by other synthetic mannosides. This fluorescent polarization assay provides a rapid method for monitoring improvements to receptor affinity during the synthetic process, as well as providing Kd binding affinity measurements.

UTI89 biofilm = test: UTI89 type 1 dependent biofilm formation (inhibition/prevention) assay on PVC, crystal violet; assay type: cell-based, uropathogenic E. coli UTI89; details: Escherichia coli
Experimental: In yet other embodiments, activity of the compound may be measured using the ability of the compound to prevent or disrupt biofilm formation.
UTI89 biofilm was grown in LB+/− mannoside for 24 h at 22° C. in PVC plates and quantitated using crystal violet. UTI89 biofilm for confocal microscopy was grown in LB for 24 h at 22° C. on PVC coverslips. Mannoside was then added and biofilm was grown for an additional 16 h. Coverslips were then washed in PBS, fixed in 2% paraformaldehyde and stained with SYTO9 prior to confocal microscopy. For all animal experiments UTI89 or PBC-1 was grown 2×24 h statically in LB at 37° C. and inoculated at a dose of 1×10^7 bacteria in 50 μl. All mice used were female C3H/HeN (Jackson). For the pretreatment studies, bacteria were incubated with mannoside for 20 min prior to inoculation into the mouse. […] For CFU counts, bladders were harvested at 6 hpi and placed in 1 mL PBS. Bladders were then homogenized, diluted and plated on LB. After growth at 37° C. overnight, bacterial counts were determined. LacZ staining and gentamicin protection assays were performed at 6 hpi. […] Water was changed daily with fresh antibiotics. Standard growth curve assays and hemagglutination assays were performed with TMP-SMZ. All statistical analysis performed was a two-tailed Mann-Whitney U test.
(§1) Biofilm assay. UTI89 was grown in LB broth in wells of PVC microtiter plates at 23° C. in the presence of individual mannosides at varying concentrations. After 48 h of growth, wells were rinsed with water and stained with crystal violet for quantification as described. For biofilm disruption activity in PVC plates, UTI89 was grown in LB broth in wells of PVC microtiter plates at 23° C. After 24 h of growth, mannoside was added and biofilms were grown for an additional 16 h. Wells were then rinsed, stained with crystal violet and quantified. For biofilm disruption activity on PVC coverslips, UTI89 was grown in LB broth in 50 mL conicals containing PBC coverslips at 23° C. After 24 h of growth, 0.3 μM ZFH-2056 was added and biofilm was grown for an additional 16 h.
UTI89 biofilm was grown in LB+/− mannoside for 24 h at 22° C. in PVC plates and quantified using crystal violet. UTI89 biofilm for confocal microscopy was grown in LB for 24 h at 22° C. on PVC coverslips followed by mannoside treatment for 16 h. For all animal experiments UTI89 or PBC-1 was grown 2×24 h statically in LB at 37° C. and inoculated at a dose of 1×10^7 bacteria in 50 μl. All mice used were female C3H/HeN (Harlan). For the chronic UTI model, mice were infected for 2 weeks prior to treatment with mannoside. […] For oral dosing, 100 μl of 10 mg/ml (50 mg/kg) or 20 mg/ml (100 mg/kg) mannoside in 8% DMSO was inoculated with a gavage needle 30 min prior to inoculation of bacteria. […] For CFU counts, bladders were harvested at 6 hpi and placed in 1 mL PBS. Bladders were then homogenized, diluted and plated on LB. After growth at 37° C. overnight, bacterial counts were determined. LacZ staining and gentamicin protection assays were performed at 6 hpi. […] Water was changed daily with fresh antibiotics. Standard growth curve and hemagglutination assays were performed. All statistical analysis performed was a two-tailed Mann-Whitney U test. […] Compounds 7-10 were prepared using slightly modified procedures. All compounds are >95% pure as determined by HPLC/MS and ^1H NMR.
as §1, with “UTI89” for “Biofilm assay. UTI89”, “For biofilm disruption activity on PVC coverslips, UTI89 was grown in LB broth in 50 mL conicals containing PBC coverslips at 23° C. After 24 h of growth, 0.3 μM ZFH-2056 was added and biofilm was grown for an additional 16 h.” left out

FimH [3] = target: T1, FimH; test: cell-based; details: for EC90: read-out: HAI Titer EC90
Experimental: as §2, §3, §4, §5

[4] = target: T2, FimH lectin domain (residues 1-158 of UPEC J96 FimH) (Escherichia coli, UniProt P08191); assay type: binding; details: Table 20; compound at 100 μM
T2 construct: made in house
Experimental: DSF measures the melting temperature change of protein when binding to small molecules. Melting temperature shifts are proportional to the free energy of binding, and melting temperatures increase even as ligand concentration exceeds the Kd.
FimH lectin domain (residues 1-158 of UPEC J96 FimH, without an affinity tag) was purified as described previously. Five micrograms FimH in 5 μl HBS were mixed with HBS to yield a final volume of 50 μl containing compound at a final concentration of 100 μM and a “5×” final concentration of SYPRO Orange (sold as a “5000×” stock in DMSO and mixed with HBS to a working stock of 50× immediately before use: Life Technologies Inc.; Grand Island, N.Y.). Compounds were diluted to 100 μM from stocks in DMSO and compared to matched control wells with FimH alone plus 0.2% DMSO. 50 μl reactions were placed in 96-well clear-bottom PCR plates and subjected to a melt curve from 20-90° C. in 0.5° C. increments of 15 seconds each followed by a fluorescence read of the “HEX” channel in a Bio-Rad CFX96 thermocycler (Bio-Rad, Hercules, Calif.). Melt curves were fitted to the Boltzmann equation to determine the melting temperature (Tm) (y=A2+(A1−A2)/(1+exp((x−x0)/dx)) where x0 is the Tm) using OriginPro 8 (OriginLab, Northampton Mass.).

[5] = FP Binding EC50, Table 13, competition with FAM mannoside 20
[6] = FimH EC50 (μM)-June 30, June 30 determination
[7] = read-out: Biofilm IC50 (approximated)
[8] = read-out: Biofilm IC50 [calculated]
[9] = Table 18, Examples 30-36 numbering
[10] = Table 20, Examples 30-36 numbering
[11] = Table 19, Examples 30-36 numbering

In the case of COC(=O)c1ccc(OC2OC(CO)C(O)C(O)C2O)cc1 (centres unmarked) [Compound 1ZFH53, methyl 4-[3,4,5-trihydroxy-6-(hydroxymethyl)tetrahydropyran-2-yl]oxybenzoate], the “HAI Titer EC>90” value (FimH [1]) is reported as 8.000 µM, the EC50 (FimH [2]; [5]) is reported as 0.064 µM and the EC50 (FimH [2]; FimH EC50) is reported as 0.058 µM. For the same compound, the EC50 (FimH [2]; [6]) was 0.0696 µM, the IC50 (UTI89 biofilm; [7]) was 10 to 100 µM and the IC50 (UTI89 biofilm; [8]) was about 62 µM. It also gave an EC50 (FimH [3]) of 8 µM.
N#Cc1ccc(OC2OC(CO)C(O)C(O)C2O)cc1 (centres unmarked) [Compound 1ZFH65, 4-[3,4,5-6-trihydroxy-6-(hydroxymethyl)tetrahydropyran-2-yl]oxybenzonitrile] was tested, and the “HAI Titer EC>90” value (FimH [1]) was 30.000 µM and the EC50 (FimH [3]) was 30 µM.
With NC(=O)c1ccc(OC2OC(CO)C(O)C(O)C2O)cc1 (centres unmarked) [Compound 1ZFH157, 4-[3,4,5-trihydroxy-6-(hydroxymethyl)tetrahydropyran-2-yl]oxybenzamide] the “HAI Titer EC>90” value (FimH [1]) was 15.000 µM and the EC50 (FimH [3]) was 15 µM.
For O=C(O)c1cccc(OC2OC(CO)C(O)C(O)C2O)c1 (centres unmarked) [Compound 1ZFH216, 3-[3,4,5-trihydroxy-6-(hydroxymethyl)tetrahydropyran-2-yl]oxybenzoic acid], the “HAI Titer EC>90” value (FimH [1]) was 60.000 µM and the EC50 (FimH [3]) was 60 µM.
NC(=O)c1cccc(-c2ccc(OC3OC(CO)C(O)C(O)C3O)cc2)c1 (centres unmarked) [Compound 2ZFH32, 3-[4-[3,4,5-trihydroxy-6-(hydroxymethyl)tetrahydropyran-2-yl]oxyphenyl]benzamide] was tested, and the “HAI Titer EC>90” value (FimH [1]) was 2.000 µM, the EC50 (FimH [2]; [5]) was 0.078 µM and the EC50 (FimH [2]; FimH EC50) was 0.057 µM. It also gave an EC50 (FimH [2]; [6]) of 0.136 µM, an IC50 (UTI89 biofilm; [7]) of about 3 µM and an EC50 (FimH [3]) of 2 µM.
OCC1OC(Oc2ccc(Cl)cc2)C(O)C(O)C1O (centres unmarked) [Compound 2ZFH178, 2-(4-chlorophenoxy)-6-(hydroxymethyl)tetrahydropyran-3,4,5-triol] was tested, and the “HAI Titer EC>90” value (FimH [1]) was 32.000 µM and the EC50 (FimH [3]) was 32 µM.
With CS(=O)(=O)Nc1cccc(-c2ccc(OC3OC(CO)C(O)C(O)C3O)cc2)c1 (centres unmarked) [Compound 3ZFH166, N-[3-[4-[3,4,5-trihydroxy-6-(hydroxymethyl)tetrahydropyran-2-yl]oxyphenyl]phenyl]methanesulfonamide] the “HAI Titer EC>90” value (FimH [1]) was 2.000 µM, the EC50 (FimH [2]; [5]) was 0.097 µM and the EC50 (FimH [3]) was 2 µM.
OC[C@H]1O[C@H](Oc2ccccc2)[C@@H](O)[C@@H](O)[C@@H]1O [Compound 3a, phenyl mannoside] showed an EC50 (FimH [3]) of 30 µM.
With O=[N+]([O-])c1ccc(O[C@H]2O[C@H](CO)[C@@H](O)[C@H](O)[C@@H]2O)cc1 [Compound 3b] the EC50 (FimH [3]) was 31 µM.
COC(=O)c1cccc(-c2ccc(O[C@H]3O[C@H](CO)[C@@H](O)[C@H](O)[C@@H]3O)c(C)c2)c1 [Compound 4c, Methyl 3-[3-methyl-4-[(2R,3S,4S,5S,6R)-3,4,5-trihydroxy-6-(hydroxymethyl)tetrahydropyran-2-yl]oxy-phenyl]benzoate] was tested, and the “HAI Titer EC>90” value (FimH [1]; Table 17, Examples 30-36 numbering) was 0.12 µM, the “fold better HAI activity” value (FimH [1]; relative to matched pair 1, Examples 30-36 numbering) was 8 fold and the IC50 (UTI89 biofilm; read-out: Biofilm Prevention IC50) was 0.33 µM. The EC90 (FimH [3]) was 0.12 µM.
With COC(=O)c1cccc(-c2ccc(OC3OC(CO)C(O)C(O)C3O)cc2)c1 (centres unmarked) [Compound 8e] the “fold improvement in HA titer” value (FimH [1]; relative to 6 (4-methylumbellferyl-α-D-mannoside)) was 2 fold, the “fold more potent in HA titer” value (FimH [1]; relative to Methylaman) was “greater than 1000 fold” and the EC50 (FimH [2]; [5]) was 0.052 µM. The EC50 (FimH [3]) was 1 µM.
For O=C(c1cccc(-c2ccc(O[C@H]3O[C@H](CO)[C@@H](O)[C@H](O)[C@@H]3O)cc2)c1)N1CCNCC1 [Compound 10c, Piperazin-1-yl-[3-[4-[(2R,3S,4S,5S,6R)-3,4,5-trihydroxy-6-(hydroxymethyl)tetrahydropyran-2-yl]oxyphenyl]phenyl]methanone], the “HAI Titer EC>90” value (FimH [1]; [9]) was 4.0 µM and the EC90 (FimH [3]) was 4 µM.
In the case of CN1CCN(C(=O)c2cccc(-c3ccc(O[C@H]4O[C@H](CO)[C@@H](O)[C@H](O)[C@@H]4O)cc3)c2)CC1 [Compound 10d, (4-Methylpiperazin-1-yl)-[3-[4-[(2R,3S,4S,5S,6R)-3,4,5-trihydroxy-6-(hydroxymethyl)tetrahydropyran-2-yl]oxyphenyl]phenyl]methanone], the “HAI Titer EC>90” value (FimH [1]; [9]) is reported as 4.0 µM and the EC90 (FimH [3]) is reported as 4 µM.
With O=C(Nc1cccnc1)c1cccc(-c2ccc(O[C@H]3O[C@H](CO)[C@@H](O)[C@H](O)[C@@H]3O)cc2)c1 [Compound 10f, N-(3-Pyridyl)-3-[4-[(2R,3S,4S,5S,6R)-3,4,5-trihydroxy-6-(hydroxymethyl)tetrahydropyran-2-yl]oxyphenyl]benzamide] the “HAI Titer EC>90” value (FimH [1]; [9]) was 0.37 µM, the “HAI Titer EC>90” value (FimH [1]; [10]) was 0.375 µM and the “DSF Melting Temp.” value [4] was 72.53 °C.
For COC(=O)c1cc(-c2ccc(O[C@H]3O[C@H](CO)[C@@H](O)[C@H](O)[C@@H]3O)cc2)ccn1 [Compound 12a, Methyl 4-[4-[(2R,3S,4S,5S,6R)-3,4,5-trihydroxy-6-(hydroxymethyl)tetrahydropyran-2-yl]oxyphenyl]pyridine-2-carboxylate], the “HAI Titer EC>90” value (FimH [1]; [11]) was 0.50 µM, the “HAI Titer EC>90” value (FimH [1]; [10]) was 0.500 µM and the “DSF Melting Temp.” value [4] was 73.68 °C.
For COC(=O)c1sc(-c2ccc(O[C@H]3O[C@H](CO)[C@@H](O)[C@H](O)[C@@H]3O)cc2)cc1NC(N)=O [Compound 13a, Methyl 5-[4-[(2R,3S,4S,5S,6R)-3,4,5-trihydroxy-6-(hydroxymethyl)tetrahydropyran-2-yl]oxyphenyl]-3-ureido-thiophene-2-carboxylate], the “HAI Titer EC>90” value (FimH [1]; [11]) was 0.02 µM and the EC90 (FimH [3]) was 0.016 µM.
O=C(O)c1cccc(-c2ccc(OC3OC(CO)C(O)C(O)C3O)cc2)c1 (centres unmarked) [Compound 14c] was tested, and the EC50 (FimH [2]; [5]) was 0.099 µM and the EC50 (FimH [3]) was 4 µM.
CCCCCCCOC1OC(CO)C(O)C(O)C1O (centres unmarked) [Heptyl-mannoside, reference compound] was tested, and the “HAI Titer EC>90” value (FimH [1]) was 15.000 µM, the EC50 (FimH [2]; FimH EC50) was 0.07 µM and the EC50 (FimH [2]; [6]) was 0.108 µM. The IC50 (UTI89 biofilm; [7]) was 10 to 100 µM and the IC50 (UTI89 biofilm; [8]) was about 20 µM.

Source: patent publication US8937167B2 (Washington University, priority 2009, dated 2015)
